Laboratory results: article PMC6812009, “Covalent Aurora A regulation by the metabolic integrator coenzyme A” (Redox Biology, 2019)
Substitutions are numbered along the chain they refer to. Each block holds one molecule with its values, some of them ahead of it.

Columns and labels:
[1] = molecular target: T1, T217E Aurora A (Homo sapiens, UniProt O14965, T217E); test: Thermal shift assay (differential scanning fluorimetry); format: binding; conditions: 5 mM ATP, 5 mM CoA or 0.1 mM MLN8237
T1 construct: For enzyme and DSF assays, full-length human Aurora A and Aurora B and 1–43 TPX2 were produced; made in house; host or cells: E. coli
T1 sequence (O14965 1-403 T217E): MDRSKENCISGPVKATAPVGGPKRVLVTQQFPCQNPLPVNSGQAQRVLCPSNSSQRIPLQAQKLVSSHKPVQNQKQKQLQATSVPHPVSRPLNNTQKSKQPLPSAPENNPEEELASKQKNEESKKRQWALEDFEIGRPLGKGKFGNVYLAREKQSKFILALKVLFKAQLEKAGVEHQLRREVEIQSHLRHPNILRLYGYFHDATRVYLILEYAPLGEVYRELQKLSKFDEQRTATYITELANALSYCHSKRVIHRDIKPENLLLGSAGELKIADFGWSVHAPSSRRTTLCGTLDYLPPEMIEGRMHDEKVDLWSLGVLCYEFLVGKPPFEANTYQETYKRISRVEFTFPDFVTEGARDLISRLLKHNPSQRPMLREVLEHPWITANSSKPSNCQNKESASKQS
Protocol: (§1) Asp274Asn and Thr217Glu Aurora A mutants were generated by PCR-site directed mutagenesis, expressed and purified as described previously. Cys290Ala Aurora A was generated using standard procedures, and purified as described.
(§2) Thermal-shift assays were performed with a StepOnePlus Real-Time PCR machine (Life Technologies) using Sypro-Orange dye (Invitrogen) and thermal ramping (0.3 °C in step intervals between 25 and 94 °C). All proteins were diluted to a final concentration of 5 μM in 50 mM Tris/HCl, pH 7.4 and 100 mM NaCl in the presence or absence of the indicated concentrations of ligand (final DMSO concentration no higher than 4 % v/v). CoA, dephosphoCoA or kinase inhibitors diluted from 10 mM DMSO stocks were assayed as described previously. Normalized data were processed using the Boltzmann equation to generate sigmoidal denaturation curves, and average Tm/ΔTm values calculated as previously described using GraphPad Prism software.

[2] = molecular target: T2, WT Aurora A (T288 phosphorylated, active) (Homo sapiens, UniProt O14965); test: as above; format: binding; conditions: 5 mM ATP, 5 mM CoA or 0.1 mM MLN8237; for CoA dependent on non-reducing conditions
T2 construct: Bacterially expressed full-length His-Aurora A was used to determine the IC50 value for CoA; made in house; host or cells: E. coli BL21 (DE3) pLysS
T2 sequence (O14965 1-403): T1 sequence (O14965 1-403 T217E) with E217T
Protocol: as §1, §2

[3] = system: FLAG-tagged Aurora A in HEK293/Pank1β cells; test: Aurora A Thr 288 phosphorylation and dimerization in cells treated with oxidising agents (immunoblot); format: cell-based, human; conditions: 30 min treatment; for Formation of Aurora A dimers in cells: non-reducing conditions; for Aurora A phosphorylation at Thr 288 in cells: samples separated in the presence of DTT
[4] = molecular target: T3, Aurora A (inactive), unphosphorylated (PP1-treated) (Homo sapiens, UniProt O14965); test: Lanthascreen Eu Kinase FRET binding assay
T3 construct: For enzyme and DSF assays, full-length human Aurora A and Aurora B and 1–43 TPX2 were produced; made in house; host or cells: E. coli
T3 sequence (O14965 1-403): T1 sequence (O14965 1-403 T217E) with E217T
Protocol: (§3) A Lanthascreen Eu Kinase FRET Binding Assay (Invitrogen) was employed to determine IC50 values for the interaction of Aurora A with CoA, dpCoA, ATP, and ADP. […] Recombinant Aurora A was incubated with Europium-conjugated anti-histidine tag antibody and an Alexa Fluor 647-labelled tracer, which binds to the ATP binding pocket of Aurora A. The close proximity of the anti-histidine (epitope-tag) antibody and the tracer results in a high degree of FRET (fluorescence resonance energy transfer) from the europium donor fluorophore to the Alexa Fluor 647 acceptor fluorophore. ATP-competitive inhibitors, such as CoA, displace the tracer from the active site, causing a loss of FRET signal. Assay set-up was performed as described by the manufacturer. Briefly, the time-resolved fluorescence resonance energy transfer assay (TR-FRET) was performed in black, low volume 384 well plates (Corning). Each well contained 5 nM kinase, 2 nM Eu-anti-His antibody and 10 nM kinase tracer 236 in kinase buffer A (50 mM Hepes pH 7.5, 10 mM MgCl2, 1 mM […], 0.01% (v/v) Brij-35), varying amounts of CoA, dpCoA, ATP, and ADP. The reaction mix was incubated for 1h at room temperature. The signal was measured at 665/620 nm emission ratio using BMG LABTECH plate reader (PHERAstar). All assays were performed using duplicates. The 11-point response curves were generated using GraphPad Prism software from the inhibition data generated.

[5] = molecular target: T4, Aurora A (active), T288 phosphorylated (Homo sapiens, UniProt O14965); test: Lanthascreen Eu Kinase FRET binding assay; conditions: T288 phosphorylated Aurora A; read-out: Aurora A (active) IC50 (μM), binding assay
T4 construct: For enzyme and DSF assays, full-length human Aurora A and Aurora B and 1–43 TPX2 were produced; made in house; host or cells: E. coli
T4 sequence (O14965 1-403): T1 sequence (O14965 1-403 T217E) with E217T
Protocol: as §3

[6] = molecular target: T5, kinase-dead D274N (inactive) Aurora A (Homo sapiens, UniProt O14965, D274N); test: Thermal shift assay (differential scanning fluorimetry); format: binding; conditions: 5 mM ATP or 5 mM CoA; CoA DTT-dependent
T5 construct: For enzyme and DSF assays, full-length human Aurora A and Aurora B and 1–43 TPX2 were produced; 6His (N); made in house; host or cells: E. coli
T5 sequence (O14965 whole entry D274N): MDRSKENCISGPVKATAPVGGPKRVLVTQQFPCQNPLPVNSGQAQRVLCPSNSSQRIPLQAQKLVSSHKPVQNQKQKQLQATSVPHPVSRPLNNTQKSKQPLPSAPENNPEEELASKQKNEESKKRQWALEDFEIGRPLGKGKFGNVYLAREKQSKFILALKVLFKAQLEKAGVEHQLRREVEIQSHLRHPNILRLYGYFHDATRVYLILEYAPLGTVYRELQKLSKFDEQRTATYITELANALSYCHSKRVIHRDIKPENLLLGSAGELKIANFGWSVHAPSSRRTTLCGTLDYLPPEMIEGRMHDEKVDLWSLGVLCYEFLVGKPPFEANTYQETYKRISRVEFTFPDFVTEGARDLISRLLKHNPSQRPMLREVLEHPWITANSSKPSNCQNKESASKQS
Protocol: as §1, §2

[7] = molecular target: T6, C290A Aurora A (Homo sapiens, UniProt O14965, C290A); test: as above; format: binding; conditions: 5 mM ATP or 5 mM CoA
T6 construct: For enzyme and DSF assays, full-length human Aurora A and Aurora B and 1–43 TPX2 were produced; made in house; host or cells: E. coli BL21 (DE3) pLysS
T6 sequence (O14965 whole entry C290A): as the sequence (O14965 whole entry D274N) above, with N274D, C290A counted along it
Protocol: as §1, §2

[8] = molecular target: T7, Aurora A (active) (Homo sapiens, UniProt O14965); test: In vitro Aurora A kinase assay (γ33P-ATP incorporation into myelin basic protein); format: biochemical; conditions: 5 μM ATP, absence of DTT; read-out: IC50, Aurora A kinase activity
T7 construct: Bacterially expressed full-length His-Aurora A was used to determine the IC50 value for CoA; made in house; host or cells: E. coli BL21 (DE3) pLysS
T7 sequence (O14965 1-403): T1 sequence (O14965 1-403 T217E) with E217T
Protocol: Profiling of 117 protein kinases with CoA, dpCoA and ADP was carried out at the International Centre for Protein Kinase Profiling at the University of Dundee. Each compound was tested in vitro, in duplicate, at 100 μM final concentration using recombinant kinases, model substrates and optimal concentrations of ATP. Bacterially expressed full-length His-Aurora A was used to determine the IC50 value for CoA (in the presence or absence of DTT), dpCoA, ADP and desulfo-CoA. The assay was performed in the presence of 5 μM competing ATP. To examine whether the inhibitory effect of CoA on Aurora A is modulated by TPX2, IC50 values for CoA were also generated in the presence and absence of 1 μg TPX2 (residues 1–43) fragment.
Aurora A kinase activity was assayed by measuring incorporation of γ^33P-ATP into myelin basic protein (Sigma). Purified recombinant protein (100 ng) was incubated at room temperature for 30 min in a total volume of 15 μl containing 50 mM HEPES pH 7.5, 10 mM MgCl2, 1 mM EGTA, 0.05% Brij-35, 0.5 mg/ml myelin basic protein, and 5 μM γ^33P-ATP (100–10,000 dpm/pmol). The reaction was stopped by spotting the reaction mixture onto squares of P81 phosphocellulose ion exchange paper (Whatmann), which were then immersed in 1.5% (v/v) phosphoric acid. After washing twice in 1% phosphoric acid followed by two washes in distilled water, the papers were air dried and radioactivity was counted by a scintillation counter and recorded by Quantasmart version 2.03.

[9] = system: mouse oocytes; test: Microinjection of mouse oocytes, spindle formation and chromosome alignment; format: cell-based; conditions: injected with 3 mM compound, 17 h after GV release
Protocol: Mouse oocytes arrested at the GV stage were injected with different concentrations of CoA (0.15–5 mM). Since the commercial preparation of CoA used for microinjection contained 3 mol of lithium ions per mole of CoA, control oocytes were injected with an equivalent amount of LiCl. In a separate study, oocytes were injected with 3 mM CoA, ADP, AMP, 3′-5′-ADP and pantetheine. To examine the effect of injected compounds on spindle formation, oocytes were fixed 17 h after GV release and stained for alpha-tubulin (green) and DNA (blue).

[10] = system: FLAG-tagged Aurora A in HEK293/Pank1β cells; test: Aurora A CoAlation in cells treated with oxidising agents (FLAG immunoprecipitation, anti-CoA immunoblot); format: cell-based, human; conditions: 30 min; 250 μM H2O2, 500 μM diamide, 50 μM menadione, 10 μM phenylarsine oxide
[11] = molecular target: T8, FLAG-tagged WT Aurora A (human), O14965; test: non-reducing SDS-PAGE and immunoblot of an anti-FLAG immunoprecipitate; FLAG-Aurora A immunoprecipitated from HEK293/Pank1β cells treated 30 min with oxidising agents (250 μM H2O2, 500 μM diamide, 50 μM menadione, 10 μM phenylarsine oxide, 1 μM rotenone); SDS-PAGE under reducing and non-reducing conditions; blots with anti-FLAG and anti-pT288; dimers seen under non-reducing conditions; conditions: remark: other sources report otherwise
T8 chain: T1 sequence (O14965 1-403 T217E) with E217T

[12] = molecular target: T9, purified Aurora A (human), O14965; test: non-reducing SDS-PAGE; purified Aurora A briefly exposed to peroxide; reducing compared with non-reducing SDS-PAGE; dimer sensitive to DTT; conditions: remark: other sources report otherwise
T9 chain: T1 sequence (O14965 1-403 T217E) with E217T

Molecule: COc1cc(Nc2ncc3c(n2)-c2ccc(Cl)cc2C(c2c(F)cccc2OC)=NC3)ccc1C(=O)O [MLN8237, alisertib]
- Ligand-induced thermal shift [1]: stabilization
- Change in thermal stability (ΔTm) [2]: marked change in thermal stability

Molecule: CC1=CC(=O)c2ccccc2C1=O [menadione]
- Formation of Aurora A dimers in cells [3]: clearly observed
- Aurora A phosphorylation at Thr 288 in cells [3]: promoted an increase

- IC50 [4]: 3 µM
- IC50 [5]: 0.2 µM
- Ligand-induced thermal shift [1]: stabilization
- Ligand interaction by thermal shift [6]: severely blunted
- Change in thermal stability (ΔTm) [2]: marked change in thermal stability
- Ligand binding / thermal stabilization [7]: still bound
Molecule: Nc1ncnc2c1ncn2[C@@H]1O[C@H](COP(=O)(O)OP(=O)(O)OP(=O)(O)O)[C@@H](O)[C@H]1O [ATP]

Molecule: OO [hydrogen peroxide]
- Formation of Aurora A dimers in cells [3]: clearly observed
- Aurora A phosphorylation at Thr 288 in cells [3]: promoted an increase

- IC50 [8]: 160000 nM
Molecule: CCNC(=O)CCNC(=O)[C@H](O)C(C)(C)COP(=O)(O)OP(=O)(O)OC[C@H]1O[C@@H](n2cnc3c(N)ncnc32)[C@H](O)[C@@H]1OP(=O)(O)O [desulfo-CoA]

Molecule: Nc1ncnc2c1ncn2[C@@H]1O[C@H](COP(=O)(O)O)[C@@H](O)[C@H]1O [AMP]
- Disruption of bipolar spindle formation and chromosome alignment [9]: not

Molecule: CN(C)C(=O)/N=N/C(=O)N(C)C [diamide]
- CoAlation of transiently expressed Aurora A in cells [10]: strongly induced
- Formation of Aurora A dimers in cells [3]: clearly observed
- Aurora A phosphorylation at Thr 288 in cells [3]: promoted an increase

Molecule: CC(C)(CO)[C@@H](O)C(=O)NCCC(=O)NCCS [pantetheine]
- Disruption of bipolar spindle formation and chromosome alignment [9]: not

- stoichiometry N [11]: 2
B1: FLAG-tagged WT Aurora A, O14965 1-403 (enzyme)
chain: T1 sequence (O14965 1-403 T217E) with E217T
modifications: here or on the partner: phosphothreonine at 288 (detected with anti-pT288 antibody after oxidising agents); phosphothreonine at 288 (detected with anti-pT288 antibody after oxidising agents)

- stoichiometry N [12]: 2
B2: purified Aurora A, O14965 1-403 (enzyme)
chain: T1 sequence (O14965 1-403 T217E) with E217T
